Patent US10501805B2, “Methods for determining responsiveness to MEK/ERK inhibitors” (CROWN BIOSCIENCE, INC. (TAICANG), priority 2014, dated 2019)

Tests used:
Assay in all cases: CellTiter-Glo cell viability, IC50 determination
Format in all cases: cell-based
PANC-1 = conditions: Homo sapiens, 72 h; PANC-1 cell line; 3-day CTG assay; read-out: Absolute IC50
Procedure: (§1) All the cells will be cultured in the media supplemented with 10% FBS except for which are marked specially, in the temperature of 37° C., 5% CO2 and 95% humidity.
(§2) Cell viability is assayed by using CellTiter-Glo® Luminescent Cell Viability Assay Kit (Cat. No.: G7572, Promega. Store at −20° C.). To prepare the CellTiter_Glo Reagent, the CellTiter-Glo Buffer was thawed and equilibrated to room temperature prior to use. For convenience the CellTiter-Glo Buffer may be thawed and stored at room temperature for up to 48 hours prior to use. The lyophilized CellTiter-Glo Substrate is equilibrated to room temperature prior to use. The appropriate volume (100 ml) of CellTiter-Glo Buffer is transferred into the amber bottle containing CellTiter-Glo Substrate to reconstitute the lyophilized enzyme/substrate mixture, which forms the CellTiter-Glo Reagent. In certain cases, the entire liquid volume of the CellTiter-Glo Buffer bottle may be added to the CellTiter-Glo Substrate vial. Mix by gently vortexing, swirling or by inverting the contents to obtain a homogeneous solution. The CellTiter-Glo Substrate should go into solution easily in less than one minute.
(§3) The day before the experiment (Day −1), cells were dissociated during the logarithmic growth period with Cell Disassociation Buffer (Gibco 13151-014) and mixed with appropriate cell media and centrifuge at 1000 rpm for 3 minutes. The cells were re-suspended and counted using Countstar before adjusting cell concentrations to optimized density (i.e. 4.44×10^4 cells/ml) with respective culture medium listed in Table 1 for 3-day CTG assay (The cell density was optimized before actual study; cell density used in the test may vary for different cell lines). 90 μl cell suspensions were added to two 96-well plates (plates A and B) with the final cell density of 4×10^3 cells/well for 3-day CTG assay (the cell density was optimized before actual study; cell density used in the test may vary for different cell lines). The plate A and B group were incubated for overnight in humidified incubator at 37° C. with 5% CO2.
(§4) On Day 0, for plate A group, 10 μl culture medium was added to each well for T0 reading. CellTiter-Glo® Reagent was added at equal volume of cell culture medium present in each well (e.g., add 100 μl of reagent to 100 μl of medium containing cells for a 96-well plate). Contents were mixed for 2 minutes on an orbital shaker to facilitate cell lysis. The plate was allowed to incubate at room temperature for 10 minutes to stabilize luminescent signal. Backseal black sticker was added to the bottom of each plate. Luminescence was recorded using EnVision Multi Label Reader. This formed the basis for T0 value.
(§5) On Day 0, the test articles and positive controls were dissolved at the concentration indicated at Test Article Dilution map. 100× solution in PBS was prepared and then diluted with appropriate culture media (1:10) into 10×working solutions. 10 μl (10×) drug solutions were dispensed in each well (triplicate for each drug concentration) of the plate B group according to plate inoculation map. The test plates were incubated for […] in the humidified incubator at 37° with 5% CO2.
(§6) On Day 3, CellTiter-Glo® Reagent was added at equal volume of cell culture medium present in each well (e.g., add 100 μl of reagent to 100 μl of medium containing cells for a 96-well plate). Contents were mixed for 2 minutes on an orbital shaker to induce cell lysis. The plate was allowed to incubate at room temperature for 10 minutes to stabilize luminescent signal. Backseal black sticker was placed to the bottom of each plate. Luminescence was recorded using EnVision Multi Label Reader.
(§7) In order to calculate IC50s, a dose-response curve was fitted using a nonlinear regression model with a sigmoidal dose response. The formula for calculating surviving rate was shown below; Absolute IC50 is calculated where Y axis set at 50% using GraphPad Prism 5.0. Software. […]

HCT-15 = conditions: Homo sapiens, 72 h; HCT-15 cell line; 3-day CTG assay; read-out: Absolute IC50
Procedure: as §1, §2, §3, §4, §5, §6, §7

LoVo = conditions: Homo sapiens, 72 h; LoVo cell line; 3-day CTG assay; read-out: Absolute IC50
Procedure: as §1, §2, §3, §4, §5, §6, §7

LS513 = conditions: Homo sapiens, LS-513, 72 h; LS513 cell line; 3-day CTG assay; read-out: Absolute IC50
Procedure: as §1, §2, §3, §4, §5, §6, §7

Calu6 = conditions: Homo sapiens, Calu-6, 72 h; Calu6 cell line; 3-day CTG assay; read-out: Absolute IC50
Procedure: as §1, §2, §3, §4, §5, §6, §7

HCT-8 = conditions: Homo sapiens, 72 h; HCT-8 cell line; 3-day CTG assay; read-out: Absolute IC50
Procedure: as §1, §2, §3, §4, §5, §6, §7

HCC4006 = conditions: Homo sapiens, 72 h; HCC4006 cell line; 3-day CTG assay; read-out: Absolute IC50
Procedure: as §1, §2, §3, §4, §5, §6, §7

NCI-H358 = conditions: Homo sapiens, 72 h; NCI-H358 cell line; 3-day CTG assay; read-out: Absolute IC50
Procedure: as §1, §2, §3, §4, §5, §6, §7

BxPc-3 = conditions: Homo sapiens, 72 h; BxPc-3 cell line; 3-day CTG assay; read-out: Absolute IC50
Procedure: as §1, §2, §3, §4, §5, §6, §7

HM-7 = conditions: 72 h; HM-7 cell line; 3-day CTG assay; read-out: Absolute IC50
Procedure: as §1, §2, §3, §4, §5, §6, §7

SNU-1 = conditions: Homo sapiens, SNU1, 72 h; SNU-1 cell line; 3-day CTG assay; read-out: Absolute IC50
Procedure: as §1, §2, §3, §4, §5, §6, §7

22RV1 = conditions: Homo sapiens, 72 h; 22RV1 cell line; 3-day CTG assay; read-out: Absolute IC50
Procedure: as §1, §2, §3, §4, §5, §6, §7

Hep3B = conditions: Homo sapiens, 72 h; Hep3B cell line; 3-day CTG assay; read-out: Absolute IC50
Procedure: as §1, §2, §3, §4, §5, §6, §7

NCI-H2009 = conditions: Homo sapiens, 72 h; NCI-H2009 cell line; 3-day CTG assay; read-out: Absolute IC50
Procedure: as §1, §2, §3, §4, §5, §6, §7

Sk-Hep-1 = conditions: Homo sapiens, SK-HEP1, 72 h; Sk-Hep-1 cell line; 3-day CTG assay; read-out: Absolute IC50
Procedure: as §1, §2, §3, §4, §5, §6, §7

RKO = conditions: Homo sapiens, 72 h; RKO cell line; 3-day CTG assay; read-out: Absolute IC50
Procedure: as §1, §2, §3, §4, §5, §6, §7

| IC50 (PANC-1) | IC50 (HCT-15) | IC50 (LoVo) | IC50 (Calu6) | IC50 (HCT-8) | IC50 (HCC4006) | IC50 (NCI-H358) | IC50 (BxPc-3) | IC50 (SNU-1) | IC50 (22RV1) | IC50 (Hep3B) | IC50 (NCI-H2009) | SMILES | IC50 (LS513) | IC50 (HM-7) | IC50 (Sk-Hep-1) | IC50 (RKO) |
| --- | --- | --- | --- | --- | --- | --- | --- | --- | --- | --- | --- | --- | --- | --- | --- | --- |
| 64300 nM | 15600 nM | 410 nM | 560 nM | 1270 nM | 2770 nM | 520 nM | 320 nM | 640 nM | 5010 nM | 250 nM | 4360 nM | O=C(Nc1ccc2[nH]nc(-c3ccncc3)c2c1)[C@@H]1CCN(CC(=O)N2CCN(c3ccc(-c4ncccn4)cc3)CC2)C1 [SCH772984, (R)-1-(2-oxo-2-(4-(4-(pyrimidin-2-yl)phenyl)piperazin-1-yl)ethyl)-N-(3-(pyridin-4-yl)-1H-indazol-5-yl)pyrrolidine-3-carboxamide] | 780 nM | 790 nM | 5290 nM | 17500 nM |
| 330000 nM | 29300 nM | 110 nM | 140 nM | 50 nM | 410 nM | 50 nM | 30 nM | 100 nM | 202000 nM | 50 nM | 410 nM | CC(=O)Nc1cccc(-n2c(=O)n(C3CC3)c(=O)c3c(Nc4ccc(I)cc4F)n(C)c(=O)c(C)c32)c1 [Trametinib, N-(3-{3-Cyclopropyl-5-[(2-fluoro-4-iodophenyl)amino]-6,8-dimethyl-2,4,7-trioxo-3,4,6,7-tetrahydropyrido[4,3-d]pyrimidin-1(2H)-yl}phenyl)acetamide] | 10 nM | 390 nM | 29100 nM | 6700 nM |
